Columns and labels:
[1] = tested on: Blumeria graminis f. Sp. Tritici (Erysiphe graminis f. Sp. Tritici); experiment: Blumeria graminis f. sp. tritici / wheat / leaf disc preventative (powdery mildew on wheat); type: in vivo; settings: foliar, wheat leaf segments cv. Kanzler, inoculated 1 day after application, assessed 6-8 days after application, read-out: control of Blumeria graminis (percent disease control compared to untreated)
Procedure, shortened: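 Wheat leaf segments (cv. Kanzler) on agar sprayed with formulated compound at 200 ppm, inoculated with powdery mildew 1 day later. Held at 20 °C, 60% RH, 24 h dark then 12 h/12 h light; percent disease control versus untreated scored 6-8 days after application.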

[2] = tested on: Botryotinia fuckeliana (Botrytis cinerea); experiment: Botryotinia fuckeliana (Botrytis cinerea) / liquid culture (gray mould); type: cell-based; settings: Vogels broth, 24° C., 3-4 days after application, read-out: control of Botryotinia fuckeliana (inhibition of growth, photometric)
Procedure, shortened: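 Botrytis cinerea conidia in Vogels broth were added to test compound applied from DMSO at 200 ppm. Incubation at 24 °C; growth inhibition read photometrically 3-4 days after application.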

Gaeumannomyces graminis = Gaeumannomyces graminis / liquid culture (take-all of cereals); type: cell-based; settings: PDB, 24° C., 4-5 days after application, read-out: control of Gaeumannomyces graminis (inhibition of growth, photometric)
Procedure, shortened: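 Mycelial fragments in potato dextrose broth were exposed to compound from DMSO at 200 ppm in microtiter plates. Incubation at 24 °C; growth inhibition read photometrically 4-5 days after application.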

[3] = tested on: Phaeosphaeria nodorum (Septoria nodorum); experiment: Phaeosphaeria nodorum (Septoria nodorum) / wheat / leaf disc preventative (glume blotch); type: in vivo; settings: Parastagonospora nodorum, foliar, wheat leaf segments cv Kanzler, inoculated 2 days after application, assessed 5-7 days after application, read-out: control of Phaeosphaeria nodorum (percent disease control compared to untreated)
Procedure, shortened: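 Wheat leaf segments (cv Kanzler) on agar sprayed with compound at 200 ppm, inoculated with spores 2 days later. Incubated at 20° C., 75% relative humidity, 12/12 h light/dark; percent disease control versus untreated scored 5-7 days after application.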

[4] = tested on: Mycosphaerella graminicola (Septoria tritici); experiment: Mycosphaerella graminicola (Septoria tritici) / liquid culture (Septoria blotch); type: cell-based; settings: Zymoseptoria tritici, PDB, 24° C., 4-5 days after application, read-out: control of Mycosphaerella graminicola (inhibition of growth, photometric)
Procedure, shortened: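 Cryo-stored conidia in potato dextrose broth were added to compound in DMSO at 200 ppm in microtiter plates. Plates were incubated at 24 °C and growth inhibition was measured photometrically 4–5 days after application.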

[5] = tested on: Monographella nivalis (Microdochium nivale); experiment: Monographella nivalis (Microdochium nivale) / liquid culture (foot rot cereals); type: cell-based; settings: PDB, 24° C., 4-5 days after application, read-out: control of Monographella nivalis (inhibition of growth, photometric)
Procedure, shortened: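 Cryostored conidia in potato dextrose broth were added to test compound dispensed from DMSO at 200 ppm. Plates were kept at 24° C, and growth inhibition was read photometrically 4-5 days after application.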

Pyrenophora teres = Pyrenophora teres / barley / leaf disc preventative (net blotch); type: in vivo; settings: foliar, barley leaf segments cv Hasso, inoculated two days after application, assessed 5-7 days after application, read-out: control of Pyrenophora teres (disease control compared to untreated)
Procedure, shortened: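 Barley cv Hasso leaf segments on agar sprayed with compound at 200 ppm, inoculated with spores two days later. Kept at 20 °C, 65% RH, 12/12 h light; disease control versus untreated scored 5-7 days after application.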

[6] = tested on: Thanatephorus cucumeris (Rhizoctonia solani); experiment: Thanatephorus cucumeris (Rhizoctonia solani) / liquid culture (foot rot, damping-off); type: cell-based; settings: PDB, 24° C., 3-4 days after application, read-out: control of Thanatephorus cucumeris (inhibition of growth, photometric)
Procedure, shortened: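 Mycelial fragments in potato dextrose broth exposed to test compounds at 200 ppm (from DMSO solution), incubated at 24° C. Growth inhibition read photometrically 3-4 days after application.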

CCCn1c(-n2ncnc2N)nc2cncc(CC)c21 [Compound 174, 2-(7-ethyl-1-propyl-imidazo[4,5-c]pyridin-2-yl)-1,2,4-triazol-3-amine]
≥ 80%: pest or weed control at 200 ppm [1] | inhibition at 20 ppm [2] | inhibition at 20 ppm (Gaeumannomyces graminis) | pest or weed control at 200 ppm [3] | inhibition at 20 ppm [4] | inhibition at 20 ppm [5] | pest or weed control at 200 ppm (Pyrenophora teres) | inhibition at 20 ppm [6]

CCCn1c(-n2ncnc2N)nc2cnccc21 [Compound 13, 2-(1-propylimidazo[4,5-c]pyridin-2-yl)-1,2,4-triazol-3-amine]
≥ 80%: pest or weed control at 200 ppm [1] | inhibition at 20 ppm [2] | inhibition at 20 ppm (Gaeumannomyces graminis) | pest or weed control at 200 ppm [3] | inhibition at 20 ppm [4] | inhibition at 20 ppm [5] | pest or weed control at 200 ppm (Pyrenophora teres) | inhibition at 20 ppm [6]

CCn1c(-n2ncnc2N)nc2cncc(-c3cccc(F)c3F)c21 [Compound 102, 2-[7-(2,3-difluorophenyl)-1-ethylimidazo[4,5-c]pyridin-2-yl]-1,2,4-triazol-3-amine]
≥ 80%: pest or weed control at 200 ppm [1] | inhibition at 20 ppm [2] | inhibition at 20 ppm (Gaeumannomyces graminis) | pest or weed control at 200 ppm [3] | inhibition at 20 ppm [4] | inhibition at 20 ppm [5] | pest or weed control at 200 ppm (Pyrenophora teres) | inhibition at 20 ppm [6]

CCn1c(-n2ncnc2N)nc2cncc(-c3cccc(OC)c3F)c21 [Compound 93, 2-[1-ethyl-7-(2-fluoro-3-methoxyphenyl)imidazo[4,5-c]pyridin-2-yl]-1,2,4-triazol-3-amine]
≥ 80%: pest or weed control at 200 ppm [1] | inhibition at 20 ppm [2] | inhibition at 20 ppm (Gaeumannomyces graminis) | pest or weed control at 200 ppm [3] | inhibition at 20 ppm [4] | inhibition at 20 ppm [5] | pest or weed control at 200 ppm (Pyrenophora teres) | inhibition at 20 ppm [6]

CCn1c(-n2ncnc2N)nc2cncc(C(C)=O)c21 [Compound 75, 1-[2-(5-amino-1,2,4-triazol-1-yl)-1-ethylimidazo[4,5-c]pyridin-7-yl]ethanone]
≥ 80%: pest or weed control at 200 ppm [1] | inhibition at 20 ppm [2] | inhibition at 20 ppm (Gaeumannomyces graminis) | pest or weed control at 200 ppm [3] | inhibition at 20 ppm [4] | inhibition at 20 ppm [5] | pest or weed control at 200 ppm (Pyrenophora teres) | inhibition at 20 ppm [6]

CC=Cc1cncc2nc(-n3ncnc3N)n(CC)c12 [Compound 67, 2-(1-ethyl-7-prop-1-enylimidazo[4,5-c]pyridin-2-yl)-1,2,4-triazol-3-amine]
≥ 80%: pest or weed control at 200 ppm [1] | inhibition at 20 ppm [2] | inhibition at 20 ppm (Gaeumannomyces graminis) | pest or weed control at 200 ppm [3] | inhibition at 20 ppm [4] | inhibition at 20 ppm [5] | pest or weed control at 200 ppm (Pyrenophora teres) | inhibition at 20 ppm [6]

CCn1c(-n2ncnc2N)nc2cncc(/C(C)=N\OC/C=C(\C)Cl)c21 [Compound 153, 2-[7-[(Z)-N-[(E)-3-chlorobut-2-enoxy]-C-methyl-carbonimidoyl]-1-ethyl-imidazo[4,5-c]pyridin-2-yl]-1,2,4-triazol-3-amine]
≥ 80%: pest or weed control at 200 ppm [1] | inhibition at 20 ppm [2] | inhibition at 20 ppm (Gaeumannomyces graminis) | pest or weed control at 200 ppm [3] | inhibition at 20 ppm [4] | inhibition at 20 ppm [5] | pest or weed control at 200 ppm (Pyrenophora teres) | inhibition at 20 ppm [6]

CCc1cncc2nc(-n3ncnc3N)n(CC)c12 [Compound 23, 2-(1,7-diethylimidazo[4,5-c]pyridin-2-yl)-1,2,4-triazol-3-amine]
≥ 80%: pest or weed control at 200 ppm [1] | inhibition at 20 ppm [2] | inhibition at 20 ppm (Gaeumannomyces graminis) | pest or weed control at 200 ppm [3] | inhibition at 20 ppm [4] | inhibition at 20 ppm [5] | pest or weed control at 200 ppm (Pyrenophora teres) | inhibition at 20 ppm [6]

CCn1c(-n2ncnc2N)nc2cncc(-c3ccc(F)c(F)c3F)c21 [Compound 86, 2-[1-ethyl-7-(2,3,4-trifluorophenyl)imidazo[4,5-c]pyridin-2-yl]-1,2,4-triazol-3-amine]
≥ 80%: pest or weed control at 200 ppm [1] | inhibition at 20 ppm [2] | inhibition at 20 ppm (Gaeumannomyces graminis) | pest or weed control at 200 ppm [3] | inhibition at 20 ppm [4] | inhibition at 20 ppm [5] | pest or weed control at 200 ppm (Pyrenophora teres) | inhibition at 20 ppm [6]

CCn1c(-n2ncnc2N)nc2cncc(-c3cccc(Cl)c3F)c21 [Compound 90, 2-[7-(3-chloro-2-fluorophenyl)-1-ethylimidazo[4,5-c]pyridin-2-yl]-1,2,4-triazol-3-amine]
≥ 80%: pest or weed control at 200 ppm [1] | inhibition at 20 ppm [2] | inhibition at 20 ppm (Gaeumannomyces graminis) | pest or weed control at 200 ppm [3] | inhibition at 20 ppm [4] | inhibition at 20 ppm [5] | pest or weed control at 200 ppm (Pyrenophora teres) | inhibition at 20 ppm [6]

CCn1c(-n2ncnc2N)nc2cncc(-c3cccnc3F)c21 [Compound 89, 2-[1-ethyl-7-(2-fluoropyridin-3-yl)imidazo[4,5-c]pyridin-2-yl]-1,2,4-triazol-3-amine]
≥ 80%: pest or weed control at 200 ppm [1] | inhibition at 20 ppm [2] | inhibition at 20 ppm (Gaeumannomyces graminis) | pest or weed control at 200 ppm [3] | inhibition at 20 ppm [4] | inhibition at 20 ppm [5] | pest or weed control at 200 ppm (Pyrenophora teres) | inhibition at 20 ppm [6]

CCCn1c(-n2ncnc2N)nc2cncc(C)c21 [Compound 173, 2-(7-methyl-1-propyl-imidazo[4,5-c]pyridin-2-yl)-1,2,4-triazol-3-amine]
≥ 80%: pest or weed control at 200 ppm [1] | inhibition at 20 ppm [2] | inhibition at 20 ppm (Gaeumannomyces graminis) | pest or weed control at 200 ppm [3] | inhibition at 20 ppm [4] | inhibition at 20 ppm [5] | pest or weed control at 200 ppm (Pyrenophora teres) | inhibition at 20 ppm [6]

From patent publication US9512120B2, “Microbicidally active imidazopyridine derivatives” (Syngenta Participations AG, priority 2013, dated 2016)
